According to US20070117770A1, “Human ribosomal DNA (rDNA) and ribosomal RNA (rRNA) nucleic acids and uses thereof” (Cylene Pharmaceuticals, Inc., priority 2005, published 2007):

Target: T1, nucleolin (Homo sapiens, UniProt P19338)
T1 construct: without the N-terminal acidic stretches domain
Experiment: Filter-binding assay of 32P-labeled quadruplexes and Nucleolin
Conditions: for Kd: 0.2 nM 32P-labeled quadruplex, read-out: Kd, apparent dissociation constant of nucleolin protein and the nucleic acid ligand
Method: The assay also was conducted in a filter-binding format. […] The protein-quadruplex mixtures were incubated for 30 min at ambient temperature and filtered through mixed cellulose ester membrane filters (Millipore) with gentle suction. The filters were washed twice with […] of binding buffer, dried and OptiPhase ‘SuperMix’ scintillation cocktail (Perkin Elmer) was added to the wells. Radioactivity was assayed with MicroBeta scintillation counter (Perkin Elmer). Binding curves were constructed and apparent Kd's and Bmax's for the complexes were calculated using the GraphPad Prizm software program (GraphPad Software). In the following table, the nucleic acid ligand is designated in the first column using the nomenclature described herein; the second column provides the nucleotide sequence of the nucleic acid ligand; the third column is the conformation of the ligand as determined by circular dichroism (M is mixed, P is parallel, A is antiparallel, C is complex, SS is single-stranded and ND is not determined); the fourth column is the dissociation constant determined by the filter binding assay of nucleolin protein and the nucleic acid ligand; the fifth column is a Bmax constant determined by the filter binding assay, which is the percent of active nucleic acid ligand in each assay; and the sixth column presents the concentration of Compound A-1 required to dissociate half of the complexed nucleic acid ligand and nucleolin protein, as determined by the EMSA assay described above.

T1 sequence (P19338 284-710 limits assumed): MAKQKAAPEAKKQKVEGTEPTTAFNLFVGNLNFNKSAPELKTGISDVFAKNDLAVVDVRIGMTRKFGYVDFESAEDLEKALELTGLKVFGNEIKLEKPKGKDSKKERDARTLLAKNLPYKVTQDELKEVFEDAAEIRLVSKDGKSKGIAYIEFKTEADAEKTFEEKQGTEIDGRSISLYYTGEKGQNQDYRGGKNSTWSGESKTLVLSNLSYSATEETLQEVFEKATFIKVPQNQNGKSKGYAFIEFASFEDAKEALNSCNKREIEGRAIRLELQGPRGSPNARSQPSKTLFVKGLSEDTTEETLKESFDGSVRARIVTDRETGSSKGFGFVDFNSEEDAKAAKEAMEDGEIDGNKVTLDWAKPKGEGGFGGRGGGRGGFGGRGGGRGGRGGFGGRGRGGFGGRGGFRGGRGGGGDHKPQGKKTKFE

Sequence	Kd [nM]	Bmax, percent of active nucleic acid ligand [%]
GTCGTAACGTCGATCAGTTTACGACAT (DNA, backbone and methylation of C not given here; listed as Homo sapiens) [RND27, reference compound]	> 30	–
AGGGAGGGAGACGGGGGGG (DNA, backbone and methylation of C not given here; listed as Homo sapiens) [Compound 5701NT]	3.2	84
AGGGCGGACGGGAGGGAGCGAGCGGGCGCGGGGG (DNA, backbone and methylation of C not given here; listed as Homo sapiens) [Compound 3500T]	1.1	20
AGGGCGCGGGGTGGGGAGGG (DNA, backbone and methylation of C not given here; listed as Homo sapiens) [Compound 10951T]	0.2	52
AGGGGAGGGGGGAGGACGGGGAGCGGGGG (DNA, backbone and methylation of C not given here; listed as Homo sapiens) [Compound 10985T]	0.2	35
TGGGGAGGGTGGGGAGGGTGGGGAATT (DNA, backbone not given here; listed as Homo sapiens) [Myc27, reference compound]	4.4	33
GGGTCCGGAAGGGGAAGGGTGCCGGCGGGGAGAGAGGGTCGGGGG (DNA, backbone and methylation of C not given here; listed as Homo sapiens) [Compound 7253NT]	0.4	60
AGGGACGGGGACCGGCGGGCCACGGGG (DNA, backbone and methylation of C not given here; listed as Homo sapiens) [Compound 13236T]	> 30	–
GGGCCGGGACGGGGTCCGGGG (listed as DNA, chemistry not given here; listed as Homo sapiens) [Compound 13173NT]	> 30	–
AGGGACCGGTGGGGCCGGGGCGGGG (DNA, backbone and methylation of C not given here; listed as Homo sapiens) [Compound 3468T]	2.4	21
GGGTGGACGGGGGGGCCTGGTGGGG (listed as DNA, chemistry not given here; listed as Homo sapiens) [Compound 1196NT]	4.2	41
AGGGGCGGCGGGGAGGAGGAGGGGCGCGGGG (DNA, backbone and methylation of C not given here; listed as Homo sapiens) [Compound 7370T]	1.1	16
AGGGTTAGGGTTAGGGTTAGGG [hTeI, reference compound]	> 30	–
GGGCTGGGTCGGTCGGGCTGGGG (listed as DNA, chemistry not given here; listed as Homo sapiens) [Compound 10816NT]	> 30	–
AGGGCGGGCGGCGGGGCGGG (DNA, backbone and methylation of C not given here; listed as Homo sapiens) [Compound 7499T]	1.1	16
AGGGGCTCCGGGGGCGGGGAGCGGGGCGTGGGCGGGAGGAGGGG (DNA, backbone and methylation of C not given here; listed as Homo sapiens) [Compound 10137T]	0.4	65

Sequence	Kd [nM]	Bmax, percent of active nucleic acid ligand [%]
AGGGGGGAACGGGGGGCGGACGGGGCCGGGGGGGTAGGGCGGGGGG (DNA, backbone and methylation of C not given here; listed as Homo sapiens) [Compound 11345T]	0.3	32
AGGGGACACCGGGGGGGCGCCGGGGG (DNA, backbone and methylation of C not given here; listed as Homo sapiens) [Compound 11888T]	0.2	47
AGGGTGGGGCGGGGGAGGGCCGCGAGGGGGGTGCCCCGGGCGTGGGGGGGG (DNA, backbone and methylation of C not given here; listed as Homo sapiens) [Compound 10885T]	0.2	82
GGGGTGGGGGGGAGGG (listed as DNA, chemistry not given here; listed as Homo sapiens) [Compound 13079NT]	2.6	37
GGGCGGGGGGGGCGGGGGG (DNA, backbone and methylation of C not given here; listed as Homo sapiens) [Compound 6534NT]	1.1	51
GGAGGAGGAGGA (DNA, backbone not given here; listed as Homo sapiens) [GGA4, reference compound]	> 30	–
GGGTCGGGGGGTGGGGCCCGGGCCGGGG (listed as DNA, chemistry not given here; listed as Homo sapiens) [Compound 2957NT]	2.7	66
GGGCCCGCGGGGGGAGGGGGAAGGGGCGGG (DNA, backbone and methylation of C not given here; listed as Homo sapiens) [Compound 6914T]	0.8	50
AGGGGCGGGGGCGCGGGGAGGAGGGGTGGG (DNA, backbone and methylation of C not given here; listed as Homo sapiens) [Compound 9024T]	0.3	43
GGGTGGCGGGGGGGAGAGGGGGG (listed as DNA, chemistry not given here; listed as Homo sapiens) [Compound 6960NT]	0.5	68
AGGGGCGGCGGGGGAAGGGAGGGCGGGTGGAGGGGTCGGGAGGAACGGGGGGCGGG (DNA, backbone and methylation of C not given here; listed as Homo sapiens) [Compound 8440T]	0.3	35
AGGGACGCCTGGGGAAGGGAGGGGG (DNA, backbone and methylation of C not given here; listed as Homo sapiens) [Compound 1310T]	4.4	50
AGGGGGTGGGCGCCGGGAGGGGGG (DNA, backbone and methylation of C not given here; listed as Homo sapiens) [Compound 8904T]	0.4	31
AGGGAGGACGCGGGGCCGGGGGGCGGAGACGGG (DNA, backbone and methylation of C not given here; listed as Homo sapiens) [Compound 8716T]	3.1	49
GGGGGCGGGAACCCCCGGGCGCCTGTGGG (DNA, backbone and methylation of C not given here; listed as Homo sapiens) [Compound 6374NT]	5.5	47
